Results as given in patent US20210308089A1, “METHODS OF TREATING AND/OR PREVENTING VIRAL INFECTIONS AND/OR DISEASES CAUSED BY VIRUSES IN A SUBJECT IN NEED THEREOF” (priority 2020, published 2021).

What was measured:
[1] = tested on: TG, non-HDL-C, LDL-C, HDL-C, Apo B, hs-CRP; experiment: REDUCE-IT: fasting lipid, lipoprotein and inflammatory markers over time; assay type: in vivo, human
Description: The key tertiary objectives for this study were to evaluate the effect of AMR101 4 g daily from baseline and percent change form baseline in fasting triglycerides and LDL-C. […]

[2] = human, in vivo, 1 year
Experimental: Additional laboratory tests: Additional laboratory tests were performed and included: • A urine pregnancy test was administered to women of childbearing potential at certain visits as listed in schedule of procedures (Table 1). The urine pregnancy tests were performed at the Research Site utilizing marketed test kits, or at a certified clinical laboratory; • A fasting blood sample (10 mL) for archiving. This sample was collected only at sites in countries where allowed by local regulations and at sites for which approved by the IRB or IEC. The plasma from the archiving sample was stored frozen in 2 separate equal aliquots, and was used at the Sponsor's discretion to perform repeat analyses described in the protocol or to perform other tests related to cardiovascular health; and • Potential non-genetic bioassays were performed, including but not limited to: Apo A1, Apo C3, Apo E, NMR lipid profile (particle size and number), oxidized LDL, Lp(a), Lp-PLA2, serum fatty-acids concentrations, and gamma-glutamyltransferase (GGT).
In addition, the following were analyzed as tertiary endpoints for the ITT population: • Relationship between on-treatment hs-CRP and the primary and key secondary endpoints; and • Relationship between on-treatment serum eicosapentaenoic acid (EPA) and the primary and key secondary endpoints. […]

[3] = Year 1 (as headed in Table 18), 4 g/day
[4] = Year 1 (as headed in Table 18), vs placebo

In the case of `CC/C=C\C/C=C\C/C=C\C/C=C\C/C=C\CCCC(=O)OCC` [icosapent ethyl, eicosapentaenoic acid ethyl ester], the “LDL cholesterol median change (increase) from baseline” value ([1]; 4 g/day) was 0.05 mmol/L, the “LDL-C derived median % change from baseline” value ([1]; Last Visit, 4 g/day, ITT) was 3.1% and the “LDL-C derived median absolute change from baseline” value ([1]; Last Visit, 4 g/day, ITT) was 2.0 mg/dL. The “Reduction in hs-CRP observed in patients from this trial” value ([1]; REDUCE-IT) was 40%, the “Apo B median” value [1, 3] was 80.0 mg/dL and the hs-CRP median [1, 3] was 1.8 mg/L. For the same compound, the “Apo B median between group difference, % change from baseline” value [1, 4] was −9.7%, the “Apo B median between group difference, absolute change from baseline” value [1, 4] was -8.0 mg/dL and the “hs-CRP median between group difference, absolute change from baseline” value [1, 4] was -0.9 mg/L. For the same compound, the “Triglycerides: median reduction from baseline greater than in placebo group (Hodges-Lehmann)” value ([1]; baseline to one year) was 19.7%, the “EPA between group difference, median % change from baseline” value [2] was 358.8% and the “EPA between group difference, median absolute change from baseline” value [2] was 114.9 µg/mL.
